Test results as given in paper PMC4792926, “G9a-mediated methylation of ERα links the PHF20/MOF histone acetyltransferase complex to hormonal gene expression” (Nature Communications, 2016).

B1: DBD: recombinant ERα DNA-binding domain (aa 175–250) (protein, UniProt P03372 175-250, looked up, fragment)
chain: AMESAKETRYCAVCNDYASGYHYGVWSCEGCKAFFKRSIQGHNDYMCPATNQCTIDKNRRKSCQACRLRKCYEVGM
B2: DBD and hinge fragment: recombinant ERα fragment DBD+hinge (aa 175–310) (protein, UniProt P03372 175-310, looked up, fragment)
chain: AMESAKETRYCAVCNDYASGYHYGVWSCEGCKAFFKRSIQGHNDYMCPATNQCTIDKNRRKSCQACRLRKCYEVGMMKGGIRKDRRGGRMLKHKRQRDDGEGRGEVGSAGDMRAANLWPSPLMIKRSKKNSLALSL
B3: AF-1: recombinant ERα N-terminal activation function domain (aa 1–190) (protein, UniProt P03372 1-190, looked up, fragment)
chain: MTMTLHTKASGMALLHQIQGNELEPLNRPQLKIPLERPLGEVYLDSSKPAVYNYPEGAAYEFNAAAAANAQVYGQTGLPYGPGSEAAAFGSNGLGGFPPLNSVSPSPLMLLHPPPQLSPFLQPHGQQVPYYLENEPSGYTVREAGPPAFYRPNSDNRRQGGRERLASTNDKGSMAMESAKETRYCAVCND

Assays:
G9a [1] = experiment: In vitro methylation of ERα protein fragments by G9a; type: biochemical, human; details: 2 μg G9a, 2 μg substrate, 3H-S-adenosylmethionine, pH 8.0, 30 °C, 4 h; autoradiography
Description: Complementary DNA encoding full-length human ERα, G9a, PHF20 and NCOA2 genes were cloned into pENTR3C and subsequently cloned into destination vectors using the Gateway technique (Invitrogen). The destination vectors used in this study include p3Flag and pCAG-Flag (for Flag-tag expression), pCAG-Myc (for Myc-tag expression) and pCAG (for no-tag expression). pERE-Luc Firefly luciferase and pRl-TK Renilla luciferase were used for the reporter assays. For in vitro enzymatic assays, G9a, ERα, ERα fragments and mutants were cloned into pGEX-6P1 (GE Healthcare) to express and purify the proteins as GST-tagged proteins. Point mutations were generated using site-directed mutagenesis (Stratagene). shRNA constructs were purchased from Sigma. The G9a-targeting shRNA sequences used in this study were 5′-[…]-3′, 5′-[…]-3′ and 5′-[…]-3′ and the PHF20-targeting shRNA sequences were 5′-[…]-3′ and 5′-[…]-3′. Peptides were synthesized at the W.M. Keck Facility at Yale University or at CPC-Scientific. Polyclonal anti-dimethylated ERαK235 rabbit sera (CPC Scientific, 1:500) were affinity-purified with an ERαK235me2 peptide and depleted against the corresponding unmethylated peptide. Anti-G9a antibodies were purchased from MBL (D141-3, 1:1,000) and Sigma (G6919, 1:2,000); anti-PHF20 (3934S, 1:1,000) antibody from Cell Signaling; anti-ERα (Sc-503, 1:1,000) and anti-GST (Sc-459, 1:1,000) antibodies from Santa Cruz; anti-FLAG (F-1804, 1:5,000) and anti-tubulin (T8328, 1:5,000) antibodies from Sigma; anti-H4K16ac (07–329, 1:1,000) antibody from Millipore; anti-total H3 (ab1791, 1:5,000) and anti-H3K9me2 (ab1220, 1:1,000) antibodies from Abcam; and streptavidin horseradish peroxidase from Thermo Scientific. 17β-estradiol and the G9a inhibitor BIX-01294 were purchased from Sigma.
The pGEX constructs encoding human G9a, ERα and ERα fragments including AF1 (aa 1–190), DBD (aa 175–250), hinge (aa 251–310), DBD+hinge (aa 175–310), LBD (aa 305–596) and the second Tudor domain of PHF20 (aa 58–148) were expressed in E. coli Rosetta (DE3) pLysS cells. After induction with IPTG (0.5 mM) for 16–18 h at 18 °C, cells were collected by centrifugation at 5,000g, lysed by sonication and purified using Glutathione Sepharose 4B beads (GE Healthcare). […]
Recombinant G9a (2 μg) was incubated with recombinant ERα fragments proteins (2 μg) in methylation assay buffer (50 mM Tris-HCl, pH 8.0, 10% glycerol, 20 mM KCl, 5 mM MgCl2, 1 mM DTT, 1 mM PMSF and 0.1 mM unlabelled or ^3H-labelled S-adenosylmethionine (GE Healthcare)) at 30 °C for 4 h. Reactions were stopped by adding SDS–PAGE sample buffer, and the methylation status was determined by autoradiography or western blotting analysis. […]

G9a [2] = experiment: In vitro methylation of ERα peptides by G9a, mass spectrometry; type: biochemical, human; details: 1 μg peptide, pH 8.0, 30 °C, 4 h
PHF20 Tudor = experiment: 1H,15N HSQC NMR titration of PHF20 Tudor; type: binding, human; details: 0.2 mM 15N-labelled PHF20 Tudor, 25 mM Tris-HCl pH 7.5, 150 mM NaCl, 298 K, 600 MHz
Method: The pGEX constructs encoding human G9a, ERα and ERα fragments including AF1 (aa 1–190), DBD (aa 175–250), hinge (aa 251–310), DBD+hinge (aa 175–310), LBD (aa 305–596) and the second Tudor domain of PHF20 (aa 58–148) were expressed in E. coli Rosetta (DE3) pLysS cells. After induction with IPTG (0.5 mM) for 16–18 h at 18 °C, cells were collected by centrifugation at 5,000g, lysed by sonication and purified using Glutathione Sepharose 4B beads (GE Healthcare). For the NMR titration assays, PHF20 Tudor was expressed in the ^15NH4Cl-supplemented (Sigma) minimal media, and the GST tag was cleaved with PreScission protease, and the cleaved protein was concentrated using Millipore concentrators (Millipore).
The ^1H,^15N HSQC spectra of 0.2 mM uniformly ^15N-labelled PHF20 Tudor (in 25 mM Tris-HCl, pH 7.5 buffer, 150 mM NaCl, 5 mM dithiothreitol and ∼8% D2O) were collected at 298 K on a Varian INOVA 600 MHz spectrometer. Binding was monitored by titrating unmodified ERα and ERαK235me2 peptides (aa 228–239) against the PHF20 Tudor domain. NMR data were processed and analysed with NMRPipe and NMRDraw as previously described. NMR assignments for PHF20 Tudor were taken from the Biological Magnetic Resonance Data Bank (BMRB 17673)[31].

Row | Molecule | methylation by G9a (G9a [1]) | other results
1 | hinge region: recombinant ERα hinge fragment (aa 251–310) (MKGGIRKDRRGGRMLKHKRQRDDGEGRGEVGSAGDMRAANLWPSPLMIKRSKKNSLALSL; UniProt P03372 251-310, looked up, fragment) | methylated both the DBD and the hinge region | –
2 | ERα peptide containing K235: ERα peptide spanning amino acids 227–244, G9a substrate (CTIDKNRRKSCQACRLRK; UniProt P03372 227-244, looked up, fragment) | – | increase in mass on G9a methylation (G9a [2]): 28 Da
3 | unmethylated ERα (aa 228–239) peptide: unmodified ERα peptide (aa 228–239) (TIDKNRRKSCQA) | – | chemical shift changes of PHF20 Tudor (PHF20 Tudor): no resonance perturbations were observed
4 | peptide containing K303: ERα peptide spanning amino acids 294–313, G9a substrate (SPLMIKRSKKNSLALSLTAD; UniProt P03372 294-313, looked up, fragment) | – | increase in mass on G9a methylation (G9a [2]): 14 Da
5 | B1 | methylated both the DBD and the hinge region | –
6 | B2 | specifically methylated | –
7 | B3 | not the AF-1 and LBD fragments | –
